The values that follow come from patent EP0443996B1, “Esters of (R)(-)-carnitine and acyl (R)(-)-carnitines with beta-hydroxybutyric acid and pharmaceutical compositions containing them for inhibiting neuronal degeneration, liver proteolysis and for the treatment of coma” (Sigma-Tau Industrie Farmaceutiche Riunite S.p.A., priority 1990, dated 1991).

In assay [1] the test system is acetaminophen (paracetamol)-induced hepatic damage. Briefly: Protection against acetaminophen (paracetamol)-induced hepatic damage, serum transaminases. It counts as in vivo, Male Wistar rats. Particulars: SGOT and SGPT in blood serum; 101 mg/kg body weight orally 1, 8 and 24 hours after paracetamol 1 g/kg per os; sacrifice at 32 hours; with respect to the control animals. On the procedure: Male Wistar rats weighing 200-250 g (15 rats/group) that had been keept fasting for at least 12 hours, were administered a single dose of paracetamol (1 g/kg body weight, per os). 100 g paracetamol were dissolved in 1000 ml of 5% (w/v) carboxymethylcellulose suspension in water. […] 101 mg ST 784/kg body weight were administered orally (as aqueous solution) 1, 8 and 24 hours, respectively, following paracetamol administration. The animals were sacrificed 32 hours following paracetamol administration.
Transaminases (SGOT and SGPT) were measured in blood serum. ST 784 provoked a decrease in transaminases exceding 60% ([…]) with respect to the control animals.

The test system of assay [2] is post-oligaemic rats. Briefly: One-trial passive avoidance task (retention of conditioned response). It counts as in vivo, Sprague-Dawley (Iffa Credo) male rats. On the procedure:
(§1) The study was conducted with a view to assessing the therapeutical effect of ST 687 administered i.p. to rats immediately after the effect of a transient forebrain oligohaemia in the experiment animals were detected. In particular, the propensity of post-oligaemic rats to develop conditioning was studied in a one-trial passive avoidance task. Concurrently, the neurologic deficit during a 3-day period following the ischaemic insult was assessed, and finally the extent of the oedema was assessed by measuring the water content of the cerebral tissue.
(§2) In the experiments Sprague-Dawley (Iffa Credo) male rats weighing 230-250 g were used, that had been caged (5 rats/cage) under conditions of controlled temperature (22°C±1°C), 50% relative humidity and 12-hours dark-light cycle (light on from 8 a.m. to 8 p.m.). The rats were fed UAR (Epinay Orge, France) laboratory chow and had free access to tap water. The rats were caged for 5 days before surgery.
(§3) Under light ether anesthesia, carotid arteries were isolated and loosely surrounded by a thread. Twenty-four hours later, reversible incomplete forebrain ischemia was produced by bilateral common carotid artery occlusion combined with sodium nitroprusside-induced arterial hypotension (1.1 mg/rat s.c.). Mean arterial blood pressure (MABP) was lowered and maintained nearby 6.6 kPa for 45 min. Then it gruadually returned to normal within the 60th minute when carotid occlusion was removed.
The functional aspects of the cerebral ischemic injury were assessed by a one trial learning procedure (passive avoidance reaction) as originally described by Kurtz K. H. e Pearl J.: The effects of prior fear experience in acquired drive learning. J. Comp. Physiol, Psychol, 1960, 53 : 201-206, and more extensively developed by Buresova et al.: Effect of atropine on learning, extinction, retention and retrieval in rats. Psychopharmacologia, 1964, 5 : 255-263.
Four hours after clipping-off untreated post-oligaemic rats were placed into an apparatus consisting of a large illuminated compartment (40 x 40 cm) connected by an opening to a small dark compartment (10 x 10 cm) with an electrified grid floor. The animals placed into the large compartment were allowed to explore the apparatus for three minutes. The latency to enter and the time spent in the small compartment were measured with a stop watch. Habituation to the experimental conditions was repeated 24 and 29 hours after ischemia. At the end of the third habituation trial, the opening between the two compartments was closed and the rat, placed into the small compartment, received intermittent electrical foot-shocks for one minute. The retention of the passive avoidance towards the small compartment was tested 24 and 48 hours after the last habituation trial i.e. 53 and 77 hours post-oligohaemia, respectively. The criterion used to determine whether an animal was conditioned was based upon the rat remaining in the large illuminated compartment for 180 sec. without entry into the small dark compartment.

Assay [3] concerns post-oligaemic rats. Briefly: Death rate after transient forebrain oligohaemia. It counts as in vivo, Sprague-Dawley (Iffa Credo) male rats. On the procedure:
as §1, §2, §3

Assay [4] relates to post-oligaemic rats. Briefly: Cerebral oedema upon brain excision 77 hours post-oligohaemia. It counts as in vivo, Sprague-Dawley (Iffa Credo) male rats. Particulars: survivors. The protocol: as §1, §2, §3
Immediately after the last retention trial, i.e. 77 hours post-oligohaemia, rats were sacrificed by decapitation, their brains rapidly removed and macroscopically examined in terms of swelling. Brain water content was determined by the method wet weight/dry weight.

In assay [1], `CC(CC(=O)O)OC(=O)CC(O)C[N+](C)(C)C` (racemic) [ST 784, ester of R(-)-carnitine chloride with R,S(±)beta-hydroxybutyric acid] showed a decrease in transaminases of more than 60%.

As for `CC(=O)O[C@H](CC(=O)[O-])C[N+](C)(C)C` [Acetyl (R)(-)-carni-tine, acetyl (R)(-)-carnitine, reference compound], the “Incidence of retention of conditioned response (%)” value with post-oligaemic rats [2] (12,5 mg. kg i.p. twice a day, + 53 h) is 80,0%; with post-oligaemic rats [2] (12,5 mg. kg i.p. twice a day, + 77 h) it was 80,0%; in the assay with post-oligaemic rats [2] (25,0 mg. kg i.p. twice a day, + 53 h) it was 60,0%; in the assay with post-oligaemic rats [2] (25,0 mg. kg i.p. twice a day, + 77 h), 70,0%; with post-oligaemic rats [2] (50,0 mg. kg i.p. twice a day, + 53 h) it was 70,0%; in the assay on post-oligaemic rats [2] (50,0 mg. kg i.p. twice a day, + 77 h), 50,0%. The “Death rate after 72 hours (%)” value in the assay on post-oligaemic rats [3] (12,5 mg. kg i.p. twice a day) was 33,3%; in the assay with post-oligaemic rats [3] (25,0 mg. kg i.p. twice a day) it was 41,2%; with post-oligaemic rats [3] (50,0 mg. kg i.p. twice a day), 50,0%. Moreover, the “Incidence of cerebral oedema upon excision (3)” value in the assay on post-oligaemic rats [4] (12,5 mg. kg i.p. twice a day) is 80,0; in the assay on post-oligaemic rats [4] (25,0 mg. kg i.p. twice a day) it was 60,0; in the assay on post-oligaemic rats [4] (50,0 mg. kg i.p. twice a day), 90,0.

On to “ester of isovaleryl (R)(-)-carnitine chloride with (R,S)(±)-beta-hydroxybutyric acid [ST 687]”, for which the “Incidence of retention of conditioned response (%)” value is 20,0% in the assay with post-oligaemic rats [2] (2,5 mg. kg i.p. twice a day, + 53 h); 40,0% in the assay with post-oligaemic rats [2] (2,5 mg. kg i.p. twice a day, + 77 h); 60,0% with post-oligaemic rats [2] (5,0 mg. kg i.p. twice a day, + 53 h); 60,0% in the assay with post-oligaemic rats [2] (5,0 mg. kg i.p. twice a day, + 77 h); 53,3% in the assay on post-oligaemic rats [2] (7,5 mg. kg i.p. twice a day, + 53 h); 66,7% in the assay with post-oligaemic rats [2] (7,5 mg. kg i.p. twice a day, + 77 h). The “Death rate after 72 hours (%)” value in the assay on post-oligaemic rats [3] (2,5 mg. kg i.p. twice a day) is listed as 47,4%; in the assay with post-oligaemic rats [3] (5,0 mg. kg i.p. twice a day), 37,5%; in the assay on post-oligaemic rats [3] (7,5 mg. kg i.p. twice a day), 62,5%. Moreover, the entries for the “Incidence of cerebral oedema upon excision (3)” value with post-oligaemic rats [4] (2,5 mg. kg i.p. twice a day), in the assay with post-oligaemic rats [4] (5,0 mg. kg i.p. twice a day) and with post-oligaemic rats [4] (7,5 mg. kg i.p. twice a day) were 80,0, 50,0 and 66,7, respectively.
